Test results from PMC12432378 (Cell Reports Medicine, 2025).
Positions of bridges follow the written chain, without caps; N, C: chain ends. Non-standard residues stand in square brackets, D forms with d. Residues, ends and D or L forms follow the SMILES beside them. S5 = C=CCCC[C@](C)(N)C(=O)O

Columns and labels:
MjHKU4r-CoV-1 PsV = settings: for IC50: 48 h
authentic MjHKU4r-CoV-1 [1] = settings: 72 h
MjHKU4r-S = type: cell-based, MjHKU4r-CoV-1; settings: for IC50: read-out: IC50 against MjHKU4r-S-mediated cell-cell fusion
MERS-CoV PsV = settings: 48 h
[2] = system: pseudotyped SARS-CoV-2 (Delta); settings: pseudotyped (Delta, 48 h)
[3] = system: pseudotyped SARS-CoV-2 (KP.2); settings: pseudotyped (KP.2, 48 h)
HCoV-OC43 = system: HCoV-OC43; set-up: species or system newborn ICR mice; settings: mouse, in vivo
authentic MjHKU4r-CoV-1 [4] = type: cell-based

Compound	IC50 (MjHKU4r-CoV-1 PsV)	IC50 (authentic MjHKU4r-CoV-1 [1])	IC50 (MjHKU4r-S)	Improvement in inhibition of pseudotyped MjHKU4r-CoV-1 infection compared to original MjHKU4r-HR2P (MjHKU4r-CoV-1 PsV)	IC50 (MERS-CoV PsV)	IC50 [2]	IC50 [3]	IC50 (authentic HCoV-OC43)	Survival rate (HCoV-OC43)	Inhibition of MjHKU4r-S-mediated cell-cell fusion at fixed concentration (MjHKU4r-S)	Blockage of MjHKU4r-CoV-1 N protein expression (immunofluorescence) (authentic MjHKU4r-CoV-1 [4])
CSCC[C@H](NC(=O)[C@H](C)NC(=O)CNC(=O)[C@H](CC(C)C)NC(=O)[C@H](C)NC(=O)[C@H](CCC(N)=O)NC(=O)[C@H](CC(N)=O)NC(=O)[C@H](Cc1ccccc1)NC(=O)[C@H](CCCCN)NC(=O)[C@H](CC(N)=O)NC(=O)[C@H](C)NC(C)=O)C(=O)N[C@@H](CCC(N)=O)C(=O)N[C@H](C(=O)NCC(=O)N[C@@H](Cc1ccccc1)C(=O)N[C@H](C(=O)N[C@H](C(=O)N[C@@H](CO)C(=O)N[C@@H](CC(N)=O)C(=O)N[C@@H](CC(C)C)C(=O)N[C@@H](C)C(=O)N[C@@H](Cc1ccccc1)C(=O)N[C@@H](CO)C(=O)N[C@@H](CCCCN)C(=O)N[C@H](C(=O)N[C@@H](CCC(N)=O)C(=O)N[C@@H](CC(=O)O)C(=O)N[C@@H](C)C(=O)N[C@H](C(=O)N[C@@H](CC(N)=O)C(=O)N[C@@H](C)C(=O)N[C@@H](CC(N)=O)C(=O)N[C@@H](C)C(=O)N[C@@H](CC(N)=O)C(=O)N[C@@H](C)C(=O)N[C@@H](CC(C)C)C(=O)N[C@@H](CO)C(=O)N[C@@H](CCCCN)C(=O)N[C@@H](CC(C)C)C(=O)N[C@@H](C)C(=O)N[C@@H](CO)C(=O)N[C@@H](CCC(=O)O)C(N)=O)C(C)C)C(C)C)[C@@H](C)O)[C@@H](C)O)[C@@H](C)O [MjHKU4r-HR1P]	> 10000 nM	> 5000 nM	–	–	–	–	–	–	–	–	–
CC[C@H](C)[C@H](NC(=O)[C@H](C)NC(=O)[C@H](CCSC)NC(=O)[C@H](CCC(=O)O)NC(=O)[C@H](CC(=O)O)NC(=O)[C@H](CO)NC(=O)[C@H](CC(C)C)NC(=O)[C@H](CC(=O)O)NC(=O)[C@H](CC(C)C)NC(=O)[C@H](CC(C)C)NC(=O)[C@@H](NC(=O)[C@@H](NC(=O)[C@H](CC(N)=O)NC(=O)[C@@H](NC(=O)[C@H](CCCCN)NC(=O)[C@H](CO)NC(=O)[C@@H](NC(=O)[C@H](CCC(=O)O)NC(C)=O)[C@@H](C)CC)[C@@H](C)CC)C(C)C)[C@@H](C)O)C(=O)N[C@@H](CC(C)C)C(=O)N[C@@H](CC(C)C)C(=O)N[C@@H](CCC(=O)O)C(=O)N[C@@H](C)C(=O)N[C@H](C(=O)N[C@@H](CCCCN)C(=O)N[C@@H](CCC(N)=O)C(=O)N[C@@H](CC(C)C)C(=O)N[C@@H](CC(N)=O)C(=O)N[C@@H](CC(=O)O)C(=O)N[C@@H](CO)C(=O)N[C@@H](Cc1ccc(O)cc1)C(=O)N[C@H](C(=O)N[C@@H](CC(=O)O)C(=O)N[C@@H](CC(C)C)C(=O)N[C@@H](CCCCN)C(=O)N[C@@H](CCC(=O)O)C(=O)N[C@@H](CC(C)C)C(N)=O)[C@@H](C)CC)[C@@H](C)CC [MjHKU4r-HR2P9]	26 nM	–	10.3 nM	2.9 fold	114 nM	408 nM	460 nM	1020 nM	–	–	–
CC[C@H](C)[C@H](NC(=O)[C@H](C)NC(=O)[C@H](CCSC)NC(=O)[C@H](CCC(=O)O)NC(=O)[C@H](CC(=O)O)NC(=O)[C@H](CO)NC(=O)[C@H](CC(C)C)NC(=O)[C@H](CC(=O)O)NC(=O)[C@H](CC(C)C)NC(=O)[C@H](CC(C)C)NC(=O)[C@@H](NC(=O)[C@@H](NC(=O)[C@H](CC(N)=O)NC(=O)[C@@H](NC(=O)[C@H](CCCCN)NC(=O)[C@H](CO)NC(=O)[C@@H](NC(=O)[C@H](CCC(=O)O)NC(C)=O)[C@@H](C)CC)[C@@H](C)CC)C(C)C)[C@@H](C)O)C(=O)N[C@@H](CC(C)C)C(=O)N[C@@H](CC(C)C)C(=O)N[C@@]1(C)CCCC=CCCC[C@@](C)(C(=O)N[C@@H](CC(C)C)C(=O)N[C@@H](CC(N)=O)C(=O)N[C@@H](CC(=O)O)C(=O)N[C@@H](CO)C(=O)N[C@@H](Cc2ccc(O)cc2)C(=O)N[C@H](C(=O)N[C@@H](CC(=O)O)C(=O)N[C@@H](CC(C)C)C(=O)N[C@@H](CCCCN)C(=O)N[C@@H](CCC(=O)O)C(=O)N[C@@H](CC(C)C)C(N)=O)[C@@H](C)CC)NC(=O)[C@H](CCCCN)NC(=O)[C@H]([C@@H](C)CC)NC(=O)[C@H](C)NC1=O [MjHKU4r-HR2P10] (Ac-EISKINVTLLDLSDEMAILL[S5]AIK[S5]LNDSYIDLKEL-NH2; staple 21-25)	–	–	–	–	37.2 nM	115 nM	85.9 nM	480 nM	66.7%	–	–
CC[C@H](C)[C@H](NC(=O)[C@H](C)NC(=O)[C@H](CCSC)NC(=O)[C@H](CCC(=O)O)NC(=O)[C@H](CC(=O)O)NC(=O)[C@H](CO)NC(=O)[C@H](CC(C)C)NC(=O)[C@H](CC(=O)O)NC(=O)[C@H](CC(C)C)NC(=O)[C@H](CC(C)C)NC(=O)[C@@H](NC(=O)[C@@H](NC(=O)[C@H](CC(N)=O)NC(=O)[C@@H](NC(=O)[C@H](CCCCN)NC(=O)[C@H](CO)NC(=O)[C@@H](NC(=O)[C@H](CCC(=O)O)NC(C)=O)[C@@H](C)CC)[C@@H](C)CC)[C@@H](C)O)[C@@H](C)O)C(=O)N[C@@H](CC(C)C)C(=O)N[C@@H](CCC(N)=O)C(=O)N[C@@H](CCC(=O)O)C(=O)N[C@H](C(=O)N[C@H](C(=O)N[C@@H](CCCCN)C(=O)N[C@@H](CCC(N)=O)C(=O)N[C@@H](CC(C)C)C(=O)N[C@@H](CC(N)=O)C(=O)N[C@@H](CC(=O)O)C(=O)N[C@@H](CO)C(=O)N[C@@H](Cc1ccc(O)cc1)C(=O)N[C@H](C(=O)N[C@@H](CC(=O)O)C(=O)N[C@@H](CC(C)C)C(=O)N[C@@H](CCCCN)C(=O)N[C@@H](CCC(=O)O)C(=O)N[C@@H](CC(C)C)C(N)=O)[C@@H](C)CC)C(C)C)C(C)C [MjHKU4r-HR2P]	62 nM	26 nM	37 nM	–	–	–	–	–	–	completely inhibited	near-complete blockage
